One experiment concerns SNU-16 cells. Kind of experiment: Inhibition of FGFR2-dependent cell growth (Cell-titer Glo). As to conditions: Homo sapiens, SNU16 cells, 72 hrs incubation, cell viability by Cell-titer Glo. It is filed as cell-based. Here is the method: The cell-based effects of FGFR inhibitors were determined by measuring inhibition of FGFR-dependent cell line growth. […] Percent inhibition of cell growth was calculated as a percentage of untreated cell viability. The percent inhibition was plotted as a function of log compound concentration. The IC50 was then calculated for each compound using Prism software from GraphPad.

A further experiment has as its target human recombinant FGFR1 (Homo sapiens, UniProt P11362). The experiment can be described thus: FGFR family enzymatic activity assay (Caliper-based kinase assay), FGFR1. It is filed as biochemical. To be noted: FGFR1 0.5 nM, ATP 100 μM, peptide substrate 1 μM, room temperature 3 h. From the text:
A Caliper-based kinase assay (Caliper Life Sciences, Hopkinton, Mass.) was used to measure inhibition of FGFR family (FGFR1, FGFR2, FGFR3, FGFR4) kinase activity of a compound of Formula (I′) or (I). […] This value is presented as the IC50.

Structures are written as SMILES. Where only a bound is given, the exact number is not on record here.

Sequence of human recombinant FGFR1 (P11362 22-822): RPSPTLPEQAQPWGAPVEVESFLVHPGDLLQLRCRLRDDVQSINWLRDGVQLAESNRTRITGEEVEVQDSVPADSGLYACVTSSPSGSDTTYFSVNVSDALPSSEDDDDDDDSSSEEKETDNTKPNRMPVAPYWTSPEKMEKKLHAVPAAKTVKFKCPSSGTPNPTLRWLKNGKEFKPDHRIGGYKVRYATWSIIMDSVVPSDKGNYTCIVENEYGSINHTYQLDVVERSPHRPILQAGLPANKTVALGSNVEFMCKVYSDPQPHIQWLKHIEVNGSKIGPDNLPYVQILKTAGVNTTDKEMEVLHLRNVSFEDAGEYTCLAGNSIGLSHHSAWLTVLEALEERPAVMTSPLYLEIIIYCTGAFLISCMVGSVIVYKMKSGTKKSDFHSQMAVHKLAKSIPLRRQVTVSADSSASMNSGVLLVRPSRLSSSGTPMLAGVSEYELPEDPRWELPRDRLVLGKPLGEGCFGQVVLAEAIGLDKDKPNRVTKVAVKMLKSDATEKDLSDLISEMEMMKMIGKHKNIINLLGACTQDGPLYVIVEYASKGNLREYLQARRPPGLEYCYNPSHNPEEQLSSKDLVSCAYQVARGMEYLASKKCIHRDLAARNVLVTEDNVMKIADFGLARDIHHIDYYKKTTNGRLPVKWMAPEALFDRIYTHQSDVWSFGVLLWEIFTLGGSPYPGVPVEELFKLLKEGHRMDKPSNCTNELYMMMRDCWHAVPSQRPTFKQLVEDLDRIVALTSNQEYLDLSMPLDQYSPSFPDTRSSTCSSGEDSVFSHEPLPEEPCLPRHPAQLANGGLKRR

A word on the IC50: it is the concentration that gives 50% inhibition. `C=CC(=O)Nc1ccc(CCn2c(=O)c(-c3cc(OC)cc(OC)c3Cl)cc3cnc(NCCN4CCOCC4)nc32)c(F)c1` [Example 55, N-(4-(2-(6-(2-chloro-3,5-dimethoxyphenyl)-2-((2-morpholinoethyl)amino)-7-oxopyrido[2,3-d]pyrimidin-8(7H)-yl)ethyl)-3-fluorophenyl)acrylamide]: the IC50 in the experiment with SNU-16 cells is 4.3 nM; at human recombinant FGFR1 it was 2.2 nM.
On to `C=CC(=O)Nc1ccc(CCn2c(=O)c(-c3c(Cl)c(OC)cc(OC)c3Cl)cc3cnc(NC(C)(C)CO)nc32)cc1` [Example 77, N-(4-(2-(6-(2,6-dichloro-3,5-dimethoxyphenyl)-2-((1-hydroxy-2-methylpropan-2-yl)amino)-7-oxopyrido[2,3-d]pyrimidin-8(7H)-yl)ethyl)phenyl)acrylamide], for which the IC50 in the experiment on SNU-16 cells turned out to be 7 nM; on human recombinant FGFR1, 2.3 nM.
For `C=CC(=O)Nc1cccc(CCn2c(=O)c(-c3cc(OC)cc(OC)c3)cc3cnc(NC)nc32)n1` [Example 11, N-(6-(2-(6-(3,5-dimethoxyphenyl)-2-(methylamino)-7-oxopyrido[2,3-d]pyrimidin-8(7H)-yl)ethyl)pyridin-2-yl)acrylamide], in that order: 94.2 nM and 22.2 nM.
As to `C=CC(=O)Nc1ccc(CCn2c(=O)c(-c3c(Cl)c(OC)cc(OC)c3Cl)cc3cnc(NCC)nc32)nc1` [Example 79, N-(6-(2-(6-(2,6-dichloro-3,5-dimethoxyphenyl)-2-(ethylamino)-7-oxopyrido[2,3-d]pyrimidin-8(7H)-yl)ethyl)pyridin-3-yl)acrylamide], the concentration for half-maximal inhibition (IC50) worked out at 3.4 nM in the experiment on SNU-16 cells and 0.2 nM on human recombinant FGFR1.
Regarding `C=CC(=O)Nc1ccc(CCn2c(=O)c(-c3c(Cl)c(OC)cc(OC)c3Cl)cc3cnc(NC(CO)CO)nc32)nc1` [Example 87, N-(6-(2-(6-(2,6-dichloro-3,5-dimethoxyphenyl)-2-((1,3-dihydroxypropan-2-yl)amino)-7-oxopyrido[2,3-d]pyrimidin-8(7H)-yl)ethyl)pyridin-3-yl)acrylamide], the IC50 in the experiment on SNU-16 cells was found to be 169 nM; on human recombinant FGFR1, 1.2 nM.
For `C=CC(=O)Nc1ccc(CCn2c(=O)c(-c3cc(OC)cc(OC)c3Cl)cc3cnc(NCCN4CCS(=O)(=O)CC4)nc32)cc1` [Example 74, N-(4-(2-(6-(2-chloro-3,5-dimethoxyphenyl)-2-((2-(1,1-dioxidothiomorpholino)-ethyl)amino)-7-oxopyrido[2,3-d]pyrimidin-8(7H)-yl)ethyl)phenyl)acrylamide], in that order: 13.3 nM and 2.2 nM.
For `C=CC(=O)Nc1ccc(CCn2c(=O)c(-c3cc(OC)cc(OC)c3Cl)cc3cnc(NCC4CC4)nc32)nc1` [Example 103, N-(6-(2-(6-(2-chloro-3,5-dimethoxyphenyl)-2-((cyclopropylmethyl)amino)-7-oxopyrido[2,3-d]pyrimidin-8(7H)-yl)ethyl)pyridin-3-yl)acrylamide], in that order: 3.6 nM and 0.6 nM.
The matching figures for `C=CC(=O)Nc1ccc(CCn2c(=O)c(-c3cc(OC)cc(OC)c3Cl)cc3cnc(NCCN4CCN(C5COC5)CC4)nc32)cc1` [Example 78, N-(4-(2-(6-(2-chloro-3,5-dimethoxyphenyl)-2-((2-(4-(oxetan-3-yl)piperazin-1-yl)ethyl)amino)-7-oxopyrido[2,3-d]pyrimidin-8(7H)-yl)ethyl)phenyl)acrylamide]: 3 nM and 0.9 nM.
On to `C=CC(=O)Nc1ccc(CCn2c(=O)c(-c3cc(OC)cc(OC)c3Cl)cc3cnc(NCCN4CCOCC4)nc32)cn1` [Example 31, N-(5-(2-(6-(2-chloro-3,5-dimethoxyphenyl)-2-(2-morpholinoethylamino)-7-oxopyrido[2,3-d]pyrimidin-8(7H)-yl)ethyl)pyridin-2-yl)acrylamide], for which the half-maximal inhibitory concentration (IC50) in the experiment with SNU-16 cells amounted to 3.6 nM; on human recombinant FGFR1, 1.4 nM.
For the compound `C=CC(=O)Nc1ccc(CCn2c(=O)c(-c3cc(OC)cc(OC)c3Cl)cc3cnc(NCCN4CCN(C(C)C)CC4)nc32)cc1` [Example 57, N-(4-(2-(6-(2-chloro-3,5-dimethoxyphenyl)-2-((4-isopropylpiperazin-1-yl-ethyl)amino)-7-oxopyrido[2,3-d]pyrimidin-8(7H)-yl)ethyl)phenyl)acylamide], the concentration for half-maximal inhibition (IC50) with SNU-16 cells and at human recombinant FGFR1 was 0.4 nM in each case.
Consider `C=CC(=O)Nc1ccc(CCn2c(=O)c(-c3cc(OC)cc(OC)c3Cl)cc3cnc(NCCO)nc32)nc1` [Example 104, N-(6-(2-(6-(2-chloro-3,5-dimethoxyphenyl)-2-((2-hydroxyethyl)amino)-7-oxopyrido[2,3-d]pyrimidin-8(7H)-yl)ethyl)pyridin-3-yl)acrylamide], for which the IC50 with SNU-16 cells was determined as 13.4 nM; on human recombinant FGFR1 it was 0.8 nM.
With `C=CC(=O)Nc1ccc(CCn2c(=O)c(-c3c(Cl)c(OC)cc(OC)c3Cl)cc3cnc(NCC(C)(C)CO)nc32)cc1` [Example 93, N-(4-(2-(6-(2,6-dichloro-3,5-dimethoxyphenyl)-2-((3-hydroxy-2,2-dimethylpropyl)-amino)-7-oxopyrido[2,3-d]pyrimidin-8(7H)-yl)ethyl)phenyl)acrylamide], the IC50 in the experiment on SNU-16 cells was 1.5 nM; on human recombinant FGFR1 it was 0.7 nM.
Consider `C=CC(=O)Nc1ccc(CCn2c(=O)c(-c3c(Cl)c(OC)cc(OC)c3Cl)cc3cnc(NC(C)(CO)CO)nc32)cc1` [Example 91, N-(4-(2-(6-(2,6-dichloro-3,5-dimethoxyphenyl)-2-((1,3-dihydroxy-2-methylpropan-2-yl)amino)-7-oxopyrido[2,3-d]pyrimidin-8(7H)-yl)ethyl)phenyl)acrylamide], for which the IC50 in the experiment with SNU-16 cells stood at 2.9 nM; at human recombinant FGFR1, 0.6 nM.
The matching figures for `C=CC(=O)Nc1ccc(CCn2c(=O)c(-c3cc(OC)cc(OC)c3Cl)cc3cnc(NCCN4CCOCC4)nc32)cc1F` [Example 54, N-(4-(2-(6-(2-chloro-3,5-dimethoxyphenyl)-2-((2-morpholinoethyl)amino)-7-oxopyrido[2,3-d]pyrimidin-8(7H)-yl)ethyl)-2-fluorophenyl)acrylamide]: 33.3 nM and 11.7 nM.
For `C=CC(=O)Nc1ccc(CCn2c(=O)c(-c3c(Cl)c(OC)cc(OC)c3Cl)cc3cnc(NCC(O)CO)nc32)nc1` (stereo not shown) [Example 88, N-(6-(2-(6-(2,6-dichloro-3,5-dimethoxyphenyl)-2-((2,3-dihydroxypropyl)amino)-7-oxopyrido[2,3-d]pyrimidin-8(7H)-yl)ethyl)pyridin-3-yl)acrylamide], in that order: 24.6 nM and 0.6 nM.
`C=CC(=O)Nc1ccc(CCn2c(=O)c(-c3cc(OC)cc(OC)c3Cl)cc3cnc(NCC(C)(C)C)nc32)cn1` [Example 30, N-(5-(2-(6-(2-chloro-3,5-dimethoxyphenyl)-2-(neopentylamino)-7-oxopyrido[2,3-d]pyrimidin-8(7H)-yl)ethyl)pyridin-2-yl)acrylamide]: the figures for the IC50 in the experiment on SNU-16 cells and on human recombinant FGFR1 were 5 nM and 5.1 nM, respectively.
In the case of `C=CC(=O)Nc1nc(CCn2c(=O)c(-c3c(Cl)c(OC)cc(OC)c3Cl)cc3cnc(NC)nc32)cs1` [Example 41, N-(4-(2-(6-(2,6-dichloro-3,5-dimethoxyphenyl)-2-(methylamino)-7-oxopyrido[2,3-d]pyrimidin-8(7H)-yl)ethyl)thiazol-2-yl)acrylamide], the figures for the IC50 in the experiment with SNU-16 cells and on human recombinant FGFR1 were > 330 nM and 5 nM, respectively.
